Measurements as given in patent publication US20160106687A1, “HUMAN THERAPEUTIC AGENTS” (Life Plus, LLC, priority 2014, published 2016).

Columns and labels:
Format in all cases: cell-based
[1] = test system: human lung cancer cells (H358); assay: Cell death in lung cancer spheroids, PrestoBlue; conditions: techniques of Example 1
Method: (§1) The respective cells were individually cultured in a growth medium prepared using RPMI-1640 medium containing 11.1 mM D-glucose with 10% fetal bovine serum, 10 mM HEPES, 2 mM L-glutamine, 1 mM sodium pyruvate, 0.05 mM 2-mercaptoethanol, and Antibiotic-Antimycotic. These cells were maintained in T75 tissue culture flasks in a humidified incubator at 37° C. and 5% CO2. The media were changed on a third day after cell plating, and the cells were passaged on day 5 by trypsinization.
(§2) Custom-made micromolds with 100 um diameter wells were loaded with the cells (U.S. Pat. No. 8,735,154, incorporated by reference herein). The media were changed every day by partial replacement. Cell aggregates were allowed to form in the micromolds for 72 hours and then were transferred to a 100 mm non-treated tissue culture dishes for 3 additional days. The spheroids were passed through 70 um and 100 μm cell strainers (#3431751 and #43152, Corning, Tewksbury, Mass.) and maintained in HEPES Balanced Salt Solution comprised of: 20 mM HEPES, 114 mM NaCl, 4.7 mM KCl, 1.2 mM KH2PO4, 1.16 mM MgSO4, 2.5 mM CaCl2, 25.5 mM NaHCO3 and 0.2% bovine serum albumin (fatty acid free), pH 7.2.
The lymphomas treatment methods used were identical to those described in Example 2 relative to the pediatric leukemia cells, whereas the lung cancer treatment method was the same as described in Example 1.

[2] = test system: human prostate cancer cells (22rv1); assay: Cell death in prostate cancer spheroids, PrestoBlue; conditions: techniques of Example 1
Method: as §1, §2
(§3) The cells were treated and tested as set forth in Example 1.

[3] = test system: human ovarian cancer cells (A1847); assay: Cell death in ovarian cancer spheroids, PrestoBlue; conditions: techniques of Example 1
Method: as §1, §2, §3

ovarian cancer cells = assay: Synergism with doxorubicin on ovarian cancer spheroids; conditions: low doses, up to 0.158 μM
Method: In this test, the synergism of GZ17-6.02 with doxorubicin (a common chemotherapy drug) was tested on ovarian cancer cells. In this test, increasing doses of doxorubicin were administered to ovarian cancer spheroids and cell deaths were measured, as described in Example 1. The protocol involved testing doxorubicin alone at various dosages (FIG. 8, doxorubicin alone—closed circles), with comparative tests using the various dosages of doxorubicin in combination with either 0.2 mg/mL (FIG. 8 open circles) or 0.4 mg/mL (FIG. 8 closed triangles) GZ17-6.02. Additionally, the induced cell death results from use of 0.2 mg/mL GZ17-6.02 alone (FIG. 8, line A) and 0.4 mg/mL GZ17-6.02 alone (FIG. 8, line B) were determined.

| SMILES | anticancer effects (cell number versus increasing concentrations), compound alone [1] | anticancer effects (cell number versus increasing concentrations), compound alone [2] | anticancer effects (cell number versus increasing concentrations), compound alone [3] | cell death, doxorubicin alone (ovarian cancer cells) |
| --- | --- | --- | --- | --- |
| COc1cccc(C=O)c1O [O-vanillin] | demonstrated anticancer effects | demonstrated anticancer effects | demonstrated anticancer effects | – |
| COc1cccc2c1C(=O)c1c(O)c3c(c(O)c1C2=O)C[C@@](O)(C(=O)CO)C[C@@H]3O[C@H]1C[C@H](N)[C@H](O)[C@H](C)O1 [doxorubicin] | – | – | – | ineffective |
| COc1ccc2c3c([nH]c2c1)C(C)=NCC3 [harmaline] | demonstrated anticancer effects | demonstrated anticancer effects | demonstrated anticancer effects | – |
| CC1=NCCc2c1[nH]c1cc(O)ccc21.Cl [harmalol hydrochloride] | demonstrated anticancer effects | demonstrated anticancer effects | demonstrated anticancer effects | – |
| Cc1nccc2c1[nH]c1cc(O)ccc12.Cl [harmole hydrochloride] | demonstrated anticancer effects | demonstrated anticancer effects | demonstrated anticancer effects | – |
| COc1ccc(C(=O)O)cc1O [isovanillic acid] | demonstrated anticancer effects | demonstrated anticancer effects | demonstrated anticancer effects | – |
| COc1ccc(CO)cc1O [isovanillyl alcohol] | demonstrated anticancer effects | demonstrated anticancer effects | demonstrated anticancer effects | – |
| COc1ccc2c3c([nH]c2c1)[C@@H](C)NCC3 [tetrahydro-harmine] | demonstrated anticancer effects | demonstrated anticancer effects | demonstrated anticancer effects | – |
| COc1cc(C=O)ccc1O [vanillin] | demonstrated anticancer effects | demonstrated anticancer effects | demonstrated anticancer effects | – |
